Patent US10072035B2, “Phenanthroline phosphonic acid derivative and preparation method therefor and application thereof” (Guangzhou Beryl Therapeutics, Inc, priority 2014, dated 2018)
Values belong to the compound of their own block, whether it stands above or below them.

Tests used:
[1] = Concentration of compound 16c and 9c in liver after PO dosing of compound 27; assay type: in vivo, Wistar rats; conditions: rat; for concentration at 0.25 h / concentration at 0.75 h / concentration at 8 h / concentration at 24 h: both sexes, Wistar, liver; for concentration at 0.25 h: 0.25 h after oral administration of compound 27 (39 mg/kg); for concentration at 0.75 h: 0.75 h after oral administration of compound 27 (39 mg/kg); for concentration at 8 h: 8 h after oral administration of compound 27 (39 mg/kg); for concentration at 24 h: 24 h after oral administration of compound 27 (39 mg/kg); for Conversion of prodrug in vivo: after PO dosing of compound 27
Method: 16 Wistar rats (200±20 g) were divided into 4 groups randomly, female and male each half in each group, ate and drank freely before the experiment. After PO dosing of compound 27 (39 mg·kg^−1), rats were sacrificed at each time point 15 min, 45 min, 8 h, 24 h. Liver samples were collected, washed off blood and contents with saline, cut into small pieces, and stirred evenly. 1 g was weighed. 1 mL Methanol/water was added. After homogenated, additional 1 mL methanol/water was added. The mixture was sonicated for 15 seconds, centrifuged (4500 rpm) for 10 minutes. The upper clear solution was tested using LC-MS/MS method to give the concentration of compound 16c and 9c in liver at different time points after administration (table 2).

human P4H enzyme = molecular target: T1, human P4H enzyme (Homo sapiens, UniProt P13674); assay: P4H enzymatic activity, coupled succinyl CoA synthase / MLG phosphate assay; assay type: biochemical; conditions: 50 nM P4H, 100 uM 2-oxoglutarate, 45 min at 25° C., n=2, FIG. 1
T1 construct: made in house; host or cells: E. coli Origami2(DE3)
T1 sequence (P13674 18-534): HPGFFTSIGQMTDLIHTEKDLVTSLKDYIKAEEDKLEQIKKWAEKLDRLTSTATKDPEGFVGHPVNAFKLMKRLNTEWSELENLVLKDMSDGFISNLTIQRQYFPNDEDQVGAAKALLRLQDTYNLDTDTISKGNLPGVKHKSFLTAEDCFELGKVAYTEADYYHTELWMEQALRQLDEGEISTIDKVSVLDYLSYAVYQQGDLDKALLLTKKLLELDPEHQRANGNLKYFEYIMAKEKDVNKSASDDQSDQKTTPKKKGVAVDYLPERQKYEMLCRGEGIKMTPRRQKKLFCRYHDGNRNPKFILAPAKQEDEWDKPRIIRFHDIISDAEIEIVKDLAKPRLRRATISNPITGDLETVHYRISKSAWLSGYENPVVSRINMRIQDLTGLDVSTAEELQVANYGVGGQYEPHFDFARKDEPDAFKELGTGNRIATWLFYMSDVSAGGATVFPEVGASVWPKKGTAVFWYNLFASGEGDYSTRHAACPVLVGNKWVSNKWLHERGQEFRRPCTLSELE
T1 sequence (P07237 18-508 partner): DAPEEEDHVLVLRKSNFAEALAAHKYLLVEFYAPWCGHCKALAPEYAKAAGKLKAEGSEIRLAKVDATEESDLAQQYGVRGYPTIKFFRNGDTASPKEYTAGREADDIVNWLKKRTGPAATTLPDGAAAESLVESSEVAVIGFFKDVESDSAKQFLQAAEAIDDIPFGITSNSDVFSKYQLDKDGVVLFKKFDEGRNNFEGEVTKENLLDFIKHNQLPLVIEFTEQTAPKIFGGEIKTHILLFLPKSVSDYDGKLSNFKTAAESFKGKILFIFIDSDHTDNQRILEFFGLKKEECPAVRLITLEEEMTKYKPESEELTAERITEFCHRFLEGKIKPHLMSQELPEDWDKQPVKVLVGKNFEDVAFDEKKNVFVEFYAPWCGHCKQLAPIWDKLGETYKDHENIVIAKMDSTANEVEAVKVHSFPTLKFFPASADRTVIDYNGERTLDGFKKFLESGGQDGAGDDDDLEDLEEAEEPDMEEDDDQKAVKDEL
From the text: Human recombinant P4H was expressed in E. coli. Briefly, DNA encoding the signal sequence of P4H was cloned into pET28_N-His_TEV, the resulting plasmid pET28_N-His_TEV_P4HA1/PDI was transferred to E. coli Origami2(DE3) to co-expressed. The enzyme obtained was purified with MonoQ ion-exchange column, TEV digested and confirmed by MS, passed through Histrap HP column, finally purified with Hiload16/60 superdex 200 column.
The measurement of the enzymatic activity of purified P4H zymoprotein and the assay of the influence of the compound to the enzymatic activity were performed at the following coupling enzymatic reaction system: 100 mM Tris (pH7.0), 0.1 mM (NH4)2Fe(SO4)2, 0.1 mM ascorbic acid, 0.2 mM CoA, 0.2 mM ATP, 0.5 uM succinyl CoA synthase, 100 uM 2-oxoglutarate, 100 uM (Pro-Pro-Gly)10peptide, 50 nM P4H enzyme, 50 ul total. After 45 min reaction at 25° C., 10 ul MLG R1 was added and reacted for 10 min, 10 ul MLG R2 was added and reacted for 20 min. P4H catalyst 2-oxoglutaric acid and polypeptide with coenzyme and suitable enzyme reaction environment to give product succinic acid. The product succinic acid then produced succinyl CoA and phosphoric acid with the action of succinyl CoA synthase. The level of generated phosphoric acid could be measured by MLG, which reflects the level of P4H. The generated green product (MG+)(H2PMo12O40) was measured at OD 630 nm. […]

[2] = In-vivo pharmacokinetics in plasma of rats; parameters: species or system Wistar rats
Method: Wistar rats (200±20 g) were divided into 2 groups, 6 each, half female and half male in each group, ate and drank freely. The first group was given compound 16c 3 mg·kg^−1 caudal-intravenously. The second group was orally administered disodium salt of compound 27 (39 mg·kg^−1). Blood (0.3 mL) was collected from retroorbital vein at time point 0 h, 0.08 h, 0.17 h, 0.33 h, 0.5 h, 0.75 h, 1 h, 1.5 h, 2 h, 3 h, 5 h, 7 h, placed into cold heparinized Eppendorf tubes. The samples were centrifuged at 4° C. (15000 rpm) for 5 min. Transfer 100 μL plasma sample to −80° C. freezer for test.
Quantitative LC-MS/MS analysis methods of compound 9c and prodrug 16c in plasma were set up, using diazepam and mildronate as internal standard, respectively. (Prodrug 27 was not detected under experimental condition from plasma) the plasma sample was tested and analyzed. (result see in Table 1 and FIG. 2)
Oral Bioavailability was calculated according to compound 16c in plasma. Area under concentration-time curve (AUC) of PO dosing was divided by AUC of iv dosing of same amount of drugs, expressed as absorption percentage: Bioavailability (F)=AUCpo·Miv/AUCiv·Mpo×100%. Wherein, Miv means the molar concentration of drugs by iv dosing, and Mpo means the molar concentration of drugs by PO dosing. The AUC0-t of compound 16c in plasma

[3] = tested on: BDL rats having liver fibrosis; assay: Bile Duct Ligation induced liver fibrosis model in rats; assay type: in vivo, Wistar rats
From the text: This experiment used Bile Duct Ligation to induce liver fibrosis model in rats. Treatment of BDL rats with PO dosing prodrug 27 was studied.
Briefly, Wistar rats (200±20 g) were divided into 3 groups, half female and half male in each group:
SHAM group: 6 rats were anaesthetized, the abdominal skin was shaved and sterilized regularly, the common bile duct was exposed by an upper abdominal midline incision with sterile operation. Muscle and skins were sutured separately.
liver fibrosis MODEL group: 12 rats were anaesthetized, the abdominal skin was shaved and sterilized regularly, the common bile duct was exposed and ligated by an upper abdominal midline incision with sterile operation. Muscle and skins were sutured separately.
Dosing group: 12 rats were anaesthetized, the abdominal skin was shaved and sterilized regularly, the common bile duct was exposed and ligated by an upper abdominal midline incision with sterile operation. Muscle and skins were sutured separately. After operation, disodium salt of compound 27 (30 mg/kg) was dissolved in water and dosed orally to the rats once per day test indexes:
After 2 weeks, measure the ALT and AST of serium and liver homogenate
After 2 weeks, rats were sacrificed, and liver performed HE staining and Masson staining.

myocardial infarction = conditions: in vivo; cited from earlier work
hepatic stellate cells = conditions: cited from earlier work
[4] = cited from earlier work
[5] = both sexes, rat, compound 16c in plasma after compound 16c IV 3 mg/kg, Wistar rats

SMILES: O=C(O)c1c[nH]c2c(ccc3cccnc32)c1=O [FG-041, 1,4-dihydrophenanthrol-4-one-3-carboxylic acid]
myocardial infarction in animal experiment (myocardial infarction): prevent myocardial infarction

SMILES: COCCNC(=O)c1ccnc(C(=O)NCCOC)c1 [HOE077]
activation of hepatic stellate cells (hepatic stellate cells): inhibits
expression of procollagen mRNA (hepatic stellate cells): inhibits
hepatic stellate cells proliferation (hepatic stellate cells): reduces
synthesis of total protein of cell (hepatic stellate cells): no effect
side effects in clinical trials [4]: severe side effects (cataract)

Now from value to compound, other results behind:

concentration at 0.25 h [1]: 16.1 ng/g
concentration at 0.75 h [1]: 64.2 ng/g
concentration at 8 h [1]: 44.7 ng/g
concentration at 24 h [1]: 3.55 ng/g
IC50 (human P4H enzyme): 8.1 µM
SMILES: O=P(O)(O)c1cnc2c(ccc3c(O)ccnc32)c1 [Compound 9c, 7-hydroxy-1,10-phenanthrolin-3-yl phosphonic acid]

concentration at 0.25 h [1]: 522 ng/g
concentration at 0.75 h [1]: 662 ng/g
concentration at 8 h [1]: 584 ng/g
concentration at 24 h [1]: 50.9 ng/g
Conversion of prodrug in vivo [1]: converted to compound 9c in liver
AUC0-t of compound 16c in plasma ([2]; after compound 16c 3 mg/kg intravenously): 2060 ng·h/mL
AUC(0-inf) [2, 5]: 2140 ng·h/mL
AUC(0-t) [2, 5]: 2060 ng·h/mL
Cmax ([2]; both sexes, rat, compound 16c in plasma after compound 16c IV 3 mg/kg, Wistar rats, read-out: Cmax (peak concentration in plasma)): 1620 ng/mL
half-life ([2]; both sexes, rat, compound 16c in plasma after compound 16c IV 3 mg/kg, Wistar rats, read-out: t1/2 (half life of drug in plasma) (converted)): 1.5 h
SMILES: O=P1(c2cnc3c(ccc4c(O)ccnc43)c2)OCC[C@@H](c2cccc(Cl)c2)O1 (stereo partly drawn) [Compound 16c, (4S)-4-(3-chlorophenyl)-2-(7-hydroxy-1,10-phenanthrolin-3-yl)-1,3,2-dioxaphosphinan-2-one]

Conversion of prodrug in vivo [1]: converted to compound 16c in rat
Detection of prodrug 27 in plasma ([2]; LC-MS/MS, after PO dosing 39 mg/kg): not detected
SMILES: O=c1ccn(COP(=O)(O)O)c2c1ccc1cc(P3(=O)OCC[C@@H](c4cccc(Cl)c4)O3)cnc12 (stereo partly drawn) [Compound 27, (3-(4S-4-(3-chlorophenyl)-1,3,2-dioxaphosphinan-2-one-2-yl)-1,10-phenanthrolin-7-one)-10(7H)-methyl phosphoric acid]
ALT in serum ([3]; BDL rats, 30 mg/kg PO once per day, 2 weeks, MODEL 144.4 ± 15.94, SHAM 67.1 ± 5.45): 74.4 ± 17.82 IU/L
AST in serum ([3]; BDL rats, 30 mg/kg PO once per day, 2 weeks, MODEL 207.2 ± 30.96, SHAM 67.7 ± 4.67): 87.2 ± 12.51 IU/L
H&E staining of rat liver ([3]; BDL, PO 30 mpk, 2 weeks, FIG. 5): varies the pathological changes of hepatic tissue
ALT and AST of the serium and liver homogenate versus model group ([3]; after 14 days of administration, P<0.01): decreased significantly
ALT in liver ([3]; liver homogenate, BDL rats, 30 mg/kg PO once per day, 2 weeks, MODEL 136.8 ± 16.48): 76.4 ± 11.35 IU/L
AST in liver ([3]; liver homogenate, BDL rats, 30 mg/kg PO once per day, 2 weeks, MODEL 198.75 ± 27.70): 91.42 ± 8.79 IU/L
